Usually IC50 stands for the concentration that inhibits the measured activity by half. The Ki is the dissociation constant of the complex between target and ligand, obtained from inhibition or displacement. The low end stands for tighter binding, the high end for weaker binding.

We go through 2 compounds from patent publication US8486991B2, “Enantiomerically pure phosphoindoles as HIV inhibitors” (Idenix Pharmaceuticals, Inc., priority 2006, dated 2013).

The subject of series [1] is EFV resistant, NNRTI resistant, NRTI and PI mutant HIV-1 viruses. The format is cell-based. Particulars: for activity against EFV resistant viruses compared with EFV: including double and triple mutants.
Series [2] in a line: Plasma protein binding by equilibrium dialysis, human. In kind it is in vitro ADME. As for the experimental part:
The in vitro plasma protein binding of compound I and compound III in rat, dog, monkey and human plasma was determined by equilibrium dialysis. Protein binding was assessed by equilibrium dialysis using rat, dog, monkey and human plasma. Samples were assayed by HPLC with LC-MS/MS detection. Plasma protein binding was high (>99%) for all species and for both compounds.
On the technique in general: Equilibrium dialysis compares concentrations on both sides of a semipermeable membrane.

Series [3] in a line: Compound depletion in hepatocytes, rat. In kind it is in vitro ADME. Particulars: up to 2 hours, read-out: t½, Compound Depletion in Hepatocytes, Rat. As for the experimental part:
Fresh hepatocytes were plated onto collagen-coated plates and exposed to test compounds at 1 μM for up to 2 hours. Tissue culture medium was assayed for compound depletion by LC/MS detection. Values in Table 23 represent independent experiments from 5 to 7 donors.

For another series, the system named is Sprague-Dawley rats. Briefly: 14-day oral toxicity, rats. The format is in vivo, rat. Particulars: for thyroid microscopic findings / effects on food consumption or body weight: rats; for thyroid microscopic findings: all dose groups except low dose compound III-treated females; for effects on food consumption or body weight: once daily oral gavage 14 days, up to 500 (I) or 450 (III) mg/kg/day. As for the experimental part: Sprague-Dawley rats and cynomolgus monkeys were dosed once daily for 14 days via oral gavage with compound I or compound III or dose vehicle (68% Capmul PG-8, 20% PEG 400, 2% Tween 20, and 10% Labrasol) according to GLP. There were 10 male and 10 female rats, and there were 3 male and 3 female monkeys. Rats and monkeys were dosed with 0, 50, 150 or 500 mg/kg/day compound I or with 0, 50, 150, 450 mg/kg/day compound III.
Toxicity was assessed using clinical observations, body weights, food consumption, and clinical pathology (hematology, coagulation, and serum chemistry).
A comprehensive necropsy and gross pathological examination was performed on all animals and selected organs and tissues were collected for histological evaluation.
Determinations of hematocrit, hemoglobin concentration, erythrocyte count, total leukocyte count, and platelet count were conducted on all samples. Leukocyte differential and morphologic assessments were performed.
Clinical biochemistry determinations included activities of alanine aminotransferase (ALT), aspartate aminotransferase (AST), gamma-glutamyltranspeptidase (GGT), and alkaline phosphatase (ALP) and concentrations of blood urea nitrogen (BUN), creatinine, total protein, albumin, globulin, glucose, cholesterol, triglycerides, total bilirubin, and electrolyte levels (Na, K, P, Cl, Ca).

Another series has as its target T1, CYP1A2 (Homo sapiens, UniProt P05177).
T1 sequence (P05177 1-516): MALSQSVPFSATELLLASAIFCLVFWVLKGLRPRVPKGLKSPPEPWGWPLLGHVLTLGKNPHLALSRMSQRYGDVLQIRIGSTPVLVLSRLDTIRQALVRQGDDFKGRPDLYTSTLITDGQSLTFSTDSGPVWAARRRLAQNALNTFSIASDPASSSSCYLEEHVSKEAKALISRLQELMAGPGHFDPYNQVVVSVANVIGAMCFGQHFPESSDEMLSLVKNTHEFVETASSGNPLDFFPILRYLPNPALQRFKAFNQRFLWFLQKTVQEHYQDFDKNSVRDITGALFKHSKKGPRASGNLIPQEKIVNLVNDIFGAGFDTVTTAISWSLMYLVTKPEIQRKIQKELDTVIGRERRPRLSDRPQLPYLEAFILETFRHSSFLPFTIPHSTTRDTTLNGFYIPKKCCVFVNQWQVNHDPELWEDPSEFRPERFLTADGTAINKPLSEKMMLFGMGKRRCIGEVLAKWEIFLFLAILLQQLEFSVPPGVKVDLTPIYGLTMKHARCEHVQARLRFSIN
Briefly: Human liver microsomal CYP450 inhibition, CYP1A2. To be noted: for IC50, CYP1A2: human liver microsomes. (In general: Liver microsomes are vesicles of endoplasmic reticulum, rich in cytochrome P450 enzymes.)

Series [4] deals with T2, CYP2B6 (Homo sapiens, UniProt P20813).
T2 sequence (P20813 1-491): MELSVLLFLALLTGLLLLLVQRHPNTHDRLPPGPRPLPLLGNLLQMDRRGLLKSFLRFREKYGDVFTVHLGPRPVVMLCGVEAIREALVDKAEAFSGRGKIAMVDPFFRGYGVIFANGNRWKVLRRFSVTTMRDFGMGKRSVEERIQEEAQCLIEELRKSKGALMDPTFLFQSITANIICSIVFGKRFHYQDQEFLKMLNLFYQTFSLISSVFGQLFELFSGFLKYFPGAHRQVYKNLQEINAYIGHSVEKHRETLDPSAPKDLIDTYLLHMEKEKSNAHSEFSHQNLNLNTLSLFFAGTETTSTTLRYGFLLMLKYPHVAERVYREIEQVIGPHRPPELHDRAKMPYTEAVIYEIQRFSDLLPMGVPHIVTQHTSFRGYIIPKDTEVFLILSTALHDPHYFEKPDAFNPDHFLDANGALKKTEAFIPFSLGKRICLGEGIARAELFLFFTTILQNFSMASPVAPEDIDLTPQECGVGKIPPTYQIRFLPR
Briefly: Human liver microsomal CYP450 inhibition, CYP2B6. Particulars: for IC50, CYP2B6: human liver microsomes.
Description: (§2) In addition, the type of inhibition was also evaluated.
(§3) Enzyme kinetic studies of cytochrome P450 isozyme inhibition were conducted using human liver microsomes.

The next series deals with T3, CYP2C8 (Homo sapiens, UniProt P10632).
T3 sequence (P10632 1-490): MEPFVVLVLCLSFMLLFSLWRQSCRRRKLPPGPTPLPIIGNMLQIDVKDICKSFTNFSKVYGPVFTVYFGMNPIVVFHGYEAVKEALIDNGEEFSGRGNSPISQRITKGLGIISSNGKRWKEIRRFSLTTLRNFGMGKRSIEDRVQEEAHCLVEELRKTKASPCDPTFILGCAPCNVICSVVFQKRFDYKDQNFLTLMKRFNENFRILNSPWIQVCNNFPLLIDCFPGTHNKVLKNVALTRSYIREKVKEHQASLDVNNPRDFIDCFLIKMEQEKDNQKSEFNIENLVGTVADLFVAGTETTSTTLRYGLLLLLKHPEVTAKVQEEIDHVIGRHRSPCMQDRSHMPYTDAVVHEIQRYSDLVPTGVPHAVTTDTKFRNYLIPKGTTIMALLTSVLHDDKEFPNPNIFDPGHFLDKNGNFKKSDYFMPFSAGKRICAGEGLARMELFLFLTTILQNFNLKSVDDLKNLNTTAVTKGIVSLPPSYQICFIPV
The experiment in a line: Human liver microsomal CYP450 inhibition, CYP2C8. To be noted: for Type of inhibition, CYP2C8 (Paclitaxel): human liver microsomes; for IC50: human, pooled human liver microsomes, probe paclitaxel.

Series [5] addresses T2, CYP2B6. Briefly: Recombinant CYP450 inhibition, fluorometric, CYP2B6. In kind it is in vitro ADME. Set-up: from tissue; host or cells: pooled human liver microsomes. To be noted: read-out: percentage of inhibition at the highest concentration tested, CYP2B6. The protocol: (§1) Compounds were assayed using recombinant human microsomal proteins with fluorometric substrates. Signal was measured with a Fusion plate reader utilizing the appropriate excitation and emission wavelength set to detect the specific metabolite: […]

The next series deals with CYP3A4 (Homo sapiens, UniProt P08684). Briefly: Recombinant CYP450 inhibition, fluorometric, CYP3A4. In kind it is in vitro ADME. Set-up: from tissue; host or cells: pooled human liver microsomes. The protocol: as §1
Sequence of CYP3A4 (P08684 whole entry): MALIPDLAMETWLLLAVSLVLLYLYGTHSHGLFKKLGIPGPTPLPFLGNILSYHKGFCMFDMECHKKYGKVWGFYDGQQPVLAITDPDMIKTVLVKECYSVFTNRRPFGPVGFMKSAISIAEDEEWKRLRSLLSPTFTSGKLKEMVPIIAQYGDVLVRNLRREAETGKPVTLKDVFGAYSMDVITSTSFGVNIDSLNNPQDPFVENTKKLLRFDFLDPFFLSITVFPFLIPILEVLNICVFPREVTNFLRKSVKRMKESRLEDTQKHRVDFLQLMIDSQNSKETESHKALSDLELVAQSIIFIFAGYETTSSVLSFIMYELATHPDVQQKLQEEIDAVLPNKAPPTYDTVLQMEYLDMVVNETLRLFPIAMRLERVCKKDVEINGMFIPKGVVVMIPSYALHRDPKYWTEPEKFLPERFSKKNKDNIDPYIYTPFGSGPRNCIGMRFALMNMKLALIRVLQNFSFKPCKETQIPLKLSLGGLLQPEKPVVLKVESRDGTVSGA

Molecules are shown by their SMILES. Where two headings read alike, the source gives them in different places.

Description for CYP1A2: as §2, §3
Description for CYP2C8: as §2, §3
Probe substrate for 2C8 was paclitaxel, probe substrate for 2C9 was diclofenac and for 3A4 probe substrates were midazolam and testosterone.

In the case of `CO[P@](=O)(c1cc(C)cc(/C=C/C#N)c1)c1c(C(N)=O)[nH]c2ccc(Cl)c(F)c12` [Compound I, (2-Carbamoyl-5-chloro-4-fluoro-1H-indol-3-yl)-[3-((E)-2-cyano-vinyl)-5-methyl-phenyl]-(R)-phosphinic acid methyl ester], in series [1], the “activity against sub-panel of mutants bearing NRTI and PI mutations” value was “highly active”; the “potency relative to Compound III against EFV resistant viruses with double and triple mutants” value is 2-3; the “activity against EFV resistant viruses compared with EFV” value is “superior to EFV”. For the same compound, the “Percentage Plasma Protein Binding, Humans” value in series [2] is 99.8%. In series [3] (hepatocytes), the half-life at 1 μM came out at 33 ± 26 min. Besides, in the series with Sprague-Dawley rats, the thyroid microscopic findings result is recorded as “minimal to mild thyroid follicular cell hypertrophy/hyperplasia” and the “effects on food consumption or body weight” value is recorded as “No effects”. At CYP1A2, the IC50 is more than 20000 nM and the “IC50, CYP1A2” value is recorded as “not observed”. Besides, on CYP2B6 [4], the IC50 was more than 20000 nM and the “IC50, CYP2B6” value is on record as “not observed”. Further, on CYP2C8, the Ki stood at 1100 nM; the “Type of inhibition, CYP2C8 (Paclitaxel)” value was “competitive inhibition”; the IC50 is less than 10000 nM. For the same compound, the “Type of inhibition, CYP2C8 (Paclitaxel)” value on CYP2C8 (listed as compound I) is “competitive inhibition”. The inhibition at 20 µM at CYP2B6 [5] (recombinant enzyme) stood at 21.6%. For the same compound, at CYP3A4, the IC50 turned out to be 1460 ± 390 nM.
In the case of `CO[P@](=O)(c1cc(C)cc(/C=C/C#N)c1)c1c(C(N)=O)[nH]c2ccc(Cl)cc12` [Compound III, (2-Carbamoyl-5-chloro-1H-indol-3-yl)-[3-((E)-2-cyano-vinyl)-5-methyl-phenyl]-(R)-phosphinic acid methyl ester], in series [1], the “activity against sub-panel of mutants bearing NRTI and PI mutations” value is given as “highly active”; the “activity against EFV resistant viruses compared with EFV” value was “superior to EFV”. Besides, the “Percentage Plasma Protein Binding, Humans” value in series [2] turned out to be 99.9%. For the same compound, in [3] (fresh hepatocytes plated on collagen-coated plates), the half-life at 1 μM is 17 ± 15 min. The organ weights entry in the series on Sprague-Dawley rats (rats (females only), mid and high doses, livers microscopically unremarkable) is “increased liver weights”. Further, in the series with Sprague-Dawley rats, the thyroid microscopic findings result was “minimal to mild thyroid follicular cell hypertrophy/hyperplasia” and the “effects on food consumption or body weight” value was “No effects”. Further, on CYP1A2, the IC50 is more than 20000 nM and the “IC50, CYP1A2” value is “not observed”. Further, on CYP2B6 [4], the IC50 is more than 20000 nM and the “IC50, CYP2B6” value is on record as “not observed”. Also, at CYP2C8, the Ki turned out to be 660 nM; the “Type of inhibition, CYP2C8 (Paclitaxel)” value is reported as “competitive inhibition”; the IC50 was less than 10000 nM. The “Type of inhibition, CYP2C8 (Paclitaxel)” value on CYP2C8 (listed as compound III) is recorded as “competitive inhibition”. Further, on CYP2B6 [5] (recombinant human CYP2B6 microsomal protein), the inhibition at 20 µM came out at 22.9%. Further, on CYP3A4 (recombinant, highest concentration tested 10 μM, read-out: IC50, CYP3A4), the IC50 was found to be 2860 ± 780 nM.
